Results on nine compounds are retold here after publication PMC10218498, “Exploring BenzylethoxyAryl Urea Scaffolds for Multitarget Immunomodulation Therapies” (International Journal of Molecular Sciences, 2023).

The test system of data set [1] is HEK-293 (human embryonic kidney cells). Kind of data set: MTT cell proliferation assay, HEK-293. It counts as cell-based. Conditions: HEK293, 48 h of treatment. How it is done: (§1) This assay allowed us to establish the corresponding IC50 values (expressed as the concentration, in μM, at which 50% of cell viability is achieved), shown in Table 1.
(§2) In 96-well plates, 5 × 10^3 (HT-29, MCF-7, A549, HMEC-1, Jurkat, and HEK-293) cells per well were incubated with serial dilutions of the tested compounds in a total volume of 100 μL of their respective growth media. The 3-(4,5-dimethylthiazol-2-yl)-2,5-diphenyltetrazolium bromide (MTT; Sigma Chemical Co.) dye reduction assay in 96-well microplates was used. After 2 days of incubation (37 °C, 5% CO2 in a humid atmosphere), 10 μL of MTT (5 mg/mL in phosphate-buffered saline, PBS) was added to each well, and the plate was incubated for a further 3 h (37 °C). After that, the supernatant was discarded and replaced by 100 µL of DMSO to dissolve formazan crystals. The absorbance was then read at 550 nm by spectrophotometry. For all concentrations of compound, cell viability was expressed as the percentage of the ratio between the mean absorbance of treated cells and the mean absorbance of untreated cells. Three independent experiments were performed, and the IC50 values (i.e., concentration half inhibiting cell proliferation) were graphically determined using GraphPad Prism 4 software.

The subject of data set [2] is HT-29 (colon adenocarcinoma). Kind of data set: MTT cell proliferation assay, HT-29. The format is cell-based, human. The following applies: for IC50: Homo sapiens, HT-29, 48 h of treatment, read-out: IC50 HT-29; for IC50 / effect on cancer cell proliferation (HT-29), in words: MTT. On the procedure: (§3) The 3-(4,5-dimethylthiazol-2-yl)-2,5-diphenyltetrazolium bromide (MTT; Sigma Chemical Co.) dye reduction assay in 96-well microplates was used. […] After that, the supernatant was discarded and replaced by 100 µL of DMSO to dissolve formazan crystals. The absorbance was then read at 550 nm by spectrophotometry. For all concentrations of compound, cell viability was expressed as the percentage of the ratio between the mean absorbance of treated cells and the mean absorbance of untreated cells. Three independent experiments were performed, and the IC50 values (i.e., concentration half inhibiting cell proliferation) were graphically determined using GraphPad Prism 4 software.
In general terms: Formazan colour is commonly taken as a measure of viable cells.

Another data set concerns Jurkat T cells. Kind of data set: MTT cell proliferation assay, Jurkat T cells. The following applies: Homo sapiens, 48 h of treatment. It counts as cell-based. How it is done:
as §1, §2

Data set [3] deals with A-549 (pulmonary adenocarcinoma). Description: MTT cell proliferation assay, A-549. The format is cell-based, human. Conditions: for IC50: Homo sapiens, A549, 48 h of treatment, read-out: IC50 A-549; for IC50 / effect on cancer cell proliferation (A-549), in words: MTT. How it is done: as §3
Data set [4] deals with human microvessel endothelial cells (HMEC-1). Kind of data set: MTT cell proliferation assay, HMEC-1. It counts as cell-based. The following applies: 48 h of treatment. On the procedure: as §1, §2

What is called melting point is the temperature, or range, at which the solid turns liquid. For orientation: IC50 means the point on the concentration scale where inhibition reaches its midpoint.

Bounds are passed on as bounds.

`COc1ccc(COc2cccc(NC(=O)Nc3cccc(F)c3)c2)cc1` [Compound 3] showed a melting point of 202 to 203 °C. Further, in data set [1], inhibition was half-maximal at 3.7 ± 0.8 µM (IC50). In data set [2], the IC50 is greater than 100 µM and the “effect on cancer cell proliferation (HT-29), in words” value (“effect … (HT-29), in words” below) is listed as “no effect”. In addition, the IC50 in the data set with Jurkat T cells was greater than 100 µM. In data set [3], the IC50 is greater than 100 µM and the “effect on cancer cell proliferation (A-549), in words” value (“effect … (A-549), in words” below) is reported as “no effect”. The compound also returned an IC50 in data set [4] greater than 100 µM.

For the compound `COc1ccc(COc2cccc(NC(=O)Nc3ccccc3OC)c2)cc1` [Compound 13], the melting point was in the range of 160 to 161.6 °C. This compound came in with a half-maximal inhibitory concentration (IC50) in data set [1] greater than 100 µM. For the same compound, in data set [2], the IC50 was greater than 100 µM and the “effect … (HT-29), in words” value is on record as “no effect”. Moreover, the IC50 in the data set on Jurkat T cells was greater than 100 µM. Moreover, in data set [3], the IC50 is greater than 100 µM and the “effect … (A-549), in words” value was “no effect”. This compound had an IC50 in data set [4] greater than 100 µM.

As to `COc1ccc(COc2cccc(NC(=O)Nc3ccccc3Br)c2)cc1` [Compound 10], the melting point came to 198.5 °C. Besides, in data set [1], half-maximal inhibition (IC50) required 8.7 ± 0.7 µM. Besides, the IC50 in data set [2] worked out at 41 ± 5 µM. The same compound yielded an IC50 in the data set with Jurkat T cells greater than 100 µM. Also, the IC50 in data set [3] came to 25 ± 1 µM. The compound also came in with an IC50 in data set [4] greater than 100 µM.

As for `COc1ccc(COc2cccc(NC(=O)Nc3cccc(OC)c3)c2)cc1` [Compound 12], the melting point lay within 137.5 to 168.9 °C. In addition, it took 12 ± 1 µM to reach half-maximal inhibition in data set [1] (IC50). Besides, in data set [2], the IC50 was greater than 100 µM and the “effect … (HT-29), in words” value is “no effect”. For the same compound, the concentration for half-maximal inhibition (IC50) in the data set with Jurkat T cells was greater than 100 µM. Besides, in data set [3], the IC50 was greater than 100 µM and the “effect … (A-549), in words” value was “no effect”. The compound further gave an IC50 in data set [4] greater than 100 µM.

In turn, `COc1ccc(COc2cccc(NC(=O)Nc3ccccc3Cl)c2)cc1` [Compound 7] yielded a melting point of 183.4 °C. The compound also came in with an IC50 in data set [1] of 27 ± 9 µM. The IC50 in data set [2] is 50 ± 4 µM. The compound also yielded an IC50 with Jurkat T cells greater than 100 µM. The IC50 in data set [3] came to 48 ± 3 µM. For the same compound, the IC50 in data set [4] is greater than 100 µM.

As for `COc1ccc(COc2cccc(NC(=O)Nc3ccc(Cl)cc3)c2)cc1` [Compound 5], the 50% inhibitory concentration (IC50) in data set [1] is greater than 100 µM; in data set [2] it was 12 ± 4 µM; in the data set on Jurkat T cells it was greater than 100 µM; in data set [3], 15 ± 2 µM; in data set [4], greater than 100 µM. In data set [2] (selectivity index), the “SI (HT-29) (IC50HEK293/IC50HT-29)” value is recorded as greater than 8. Moreover, in data set [3] (selectivity index), the “SI (A-549) (IC50HEK293/A-549)” value is on record as greater than 7.

Take `COc1ccc(COc2cccc(NC(=O)Nc3ccccc3)c2)cc1` [Compound 1]: the IC50 in data set [1] is 1.4 ± 0.2 µM; in data set [2] it was 21 ± 10 µM; in the data set on Jurkat T cells it was greater than 100 µM; in data set [3] it was 6 ± 3 µM; in data set [4], greater than 100 µM.

On to `COc1ccc(COc2cccc(NC(=O)Nc3cccc(Cl)c3)c2)cc1` [Compound 6], for which the IC50 was 3.3 ± 0.5 µM in data set [1]; 38 ± 15 µM in data set [2]; greater than 100 µM in the data set on Jurkat T cells; greater than 100 µM in data set [3]; greater than 100 µM in data set [4]. The “effect … (HT-29), in words” value in data set [2] is given as “only active in HT-29”.

`COc1ccc(COc2cccc(NC(=O)Nc3ccccc3F)c2)cc1` [Compound 4] came in with a melting point of 185 to 186 °C. In addition, half-maximal inhibition in data set [1] (IC50) was put at 16 ± 4 µM. Besides, in data set [2], the IC50 was greater than 100 µM and the “effect … (HT-29), in words” value is listed as “no effect”. Besides, in the data set on Jurkat T cells, the IC50 was greater than 100 µM. Moreover, in data set [3], the IC50 is greater than 100 µM and the “effect … (A-549), in words” value is listed as “no effect”. In data set [4], the IC50 is greater than 100 µM.
